Reference: PubChem BioAssay (NCI)
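Dose response: 5 concentrations. Exposure: 48 h. Format: 96-well plates. Endpoint: linear interpolation; highest concentration if not reached. The concentration for 50% growth inhibition is given as GI50. Definition used: TGI = concentration required for complete inhibition of growth.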

Key:
Experiment in all cases: NCI tumour cell line growth inhibition, 48 h
A549 NSCLC = tested on: A549 NSCLC
PC-3 prostate = tested on: PC-3 prostate
NCI-H23 lung = tested on: NCI-H23 lung
A498 renal = tested on: A498 renal
RXF 393 renal = tested on: RXF 393 renal
U251 CNS = tested on: U251 CNS
M14 melanoma = tested on: M14 melanoma
KM12 colon = tested on: KM12 colon
HOP-62 NSCLC = tested on: HOP-62 NSCLC
SNB-19 CNS = tested on: SNB-19 CNS

SMILES | GI50 (A549 NSCLC) [µM] | TGI (A549 NSCLC) [µM] | GI50 (PC-3 prostate) [µM] | TGI (PC-3 prostate) [µM] | GI50 (NCI-H23 lung) [µM] | TGI (NCI-H23 lung) [µM] | GI50 (A498 renal) [µM] | TGI (A498 renal) [µM] | GI50 (RXF 393 renal) [µM] | TGI (RXF 393 renal) [µM] | GI50 (U251 CNS) [µM] | TGI (U251 CNS) [µM] | GI50 (M14 melanoma) [µM] | TGI (M14 melanoma) [µM] | GI50 (KM12 colon) [µM] | TGI (KM12 colon) [µM] | GI50 (HOP-62 NSCLC) [µM] | TGI (HOP-62 NSCLC) [µM] | GI50 (SNB-19 CNS) [µM] | TGI (SNB-19 CNS) [µM]
CC[C@@H](C(=O)[C@@H](C)[C@@H](O)[C@H](C)[C@@H]1O[C@@H]([C@@H](CC)C(=O)O)CC[C@@H]1C)C1O[C@]2(C=CC(=O)[C@]3(CC[C@@](C)([C@H]4CC[C@](O)(CC)[C@H](C)O4)O3)O2)[C@H](C)C[C@@H]1C (stereo not given in full) | 0.342 | 22.7 | 0.0665 | 15.5 | 0.0979 | 8.93 | 0.0631 | 0.877 | 0.0416 | 1.79 | 0.0791 | 13.3 | 1.41 | 3.53 | 0.515 | 6 | 0.334 | 18.3 | 0.4 | 6.96
O=C1NN(c2ccc(C(=O)O)cc2)C(=O)/C1=C\c1ccc([N+](=O)[O-])o1 | > 100 | > 100 | > 100 | > 100 | 75.1 | > 100 | > 100 | > 100 | 40.7 | > 100 | 79.9 | > 100 | 28.6 | 88 | > 100 | > 100 | > 100 | > 100 | > 100 | > 100
C/C=C(\C)C(=O)N[C@H]1CC[C@]2(C)C3CC[C@@]4(C)C(CC[C@@H]4C(C)N(C)C)C3CCC2[C@H]1OC(C)=O (stereo not given in full) | 2.07 | 4.69 | 2.05 | 6.59 | 1.91 | 5.01 | 1.43 | 3.51 | 1.57 | 3.03 | 1.55 | 3.56 | 1.85 | 3.69 | 2 | 5.15 | 1.76 | 3.46 | 2.1 | 4.13
c1ccc(Cn2cc3c(c2-c2ccccc2)CCc2cnoc2-3)cc1 | 5.73 | > 100 | 6.13 | > 100 | 4.92 | 69.2 | 7.33 | > 100 | 4.94 | 61.2 | 3.65 | > 100 | 4.89 | > 100 | 3.27 | 47 | 6.76 | > 100 | 4.24 | > 100
